The source made the active and inactive calls.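 The calls were made as follows: active = compounds giving half or more protection of infected cells from virus-caused growth loss, again on retest; inactive = the rest.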 Where a SMILES comes first, the peptide text is derived from it. [ ]: non-standard residue; d: D form. The star is where a group is joined. Phe(4-NO2) = N[CH](Cc1ccc([N+](=O)[O-])cc1)C(=O)O; Cbz = O=C(OCc1ccccc1)*; Boc = CC(C)(C)OC(=O)*; OSu = O=C1CCC(=O)N1O*

Data on 72 compounds can be found in PubChem BioAssay AID179 (DTP/NCI, 2004).

This assay relates to CEM cells HIV-1 protection, formazan growth assay. Nature of the assay: NCI AIDS Antiviral Assay. The conditions noted are these: for IC50: measured here: growth of uninfected CEM cells. In short, it runs like this: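 Category rules: moderately active means at least 50% protection on retest, and confirmed active means 100% protection reproducibly. The underlying data came from a formazan growth assay in HIV-1-infected CEM cells.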

Consider `CC(C)=CC[C@]12CCN(C)[C@H]1N(S(=O)(=O)c1ccccc1)c1ccccc12`, for which the EC50 (as a rule, the concentration needed to bring the measured effect to its halfway point) was greater than 200 µM and the IC50 – broadly, the point on the concentration scale where inhibition reaches its midpoint – is 135 µM.
The corresponding values for `COc1ccccc1NC(=S)N/C=C(\C#N)c1nc2ccccc2s1` are greater than 200 µM and 117 µM.
The corresponding values for `Cc1cc(-c2ccco2)oc(=O)c1NC(=O)c1cnccn1` are greater than 200 µM and greater than 200 µM.
Turning to `CCOC(=O)CCC(NC(=O)OCc1ccccc1)C(=O)NC(CCC(=O)OCC)C(=O)NC(Cc1ccc([N+](=O)[O-])cc1)C(=O)NC(CCC(=O)OCC)C(=O)NC(CCC(=O)OCC)C(=O)OCC` (stereo not given) (Cbz-E(OEt)E(OEt)[Phe(4-NO2)]E(OEt)E(OEt)-OEt; configuration not given here), the EC50 is greater than 200 µM and the IC50 was greater than 200 µM.
Regarding `COc1ccc(CCN2C(=O)c3cccc4c(Sc5ccccc5[N+](=O)[O-])ccc(c34)C2=O)cc1OC`, the EC50 is greater than 200 µM and the IC50 is greater than 200 µM.
Regarding `COc1cc(C2CC(=O)c3ccccc3O2)ccc1O` (stereo not given), the EC50 is greater than 200 µM and the IC50 is 11.7 µM.
For the compound `Cc1cc(/C=C\c2ccnc3ccccc23)ccc1N(C)C`, the result was inactive.
For the compound `COc1cc(OC)c2c(O)c(S(=O)(=O)c3ccc(C)cc3)c(=O)oc2c1`, the EC50 is greater than 200 µM and the IC50 was greater than 200 µM.
Take `CC(=O)C(CN1CCOCC1)C(c1ccccc1)c1c(O)c2ccccc2oc1=O` (stereo not given): the EC50 is greater than 89.1 µM and the IC50 turned out to be 55 µM.
For the compound `O=C(NC(=O)c1c(Cl)nc2sccn12)Nc1ccc(Cl)cc1`, the EC50 was greater than 10 µM and the IC50 is greater than 10 µM.
As for `CC(NC(=O)C1CCCN1C(=O)OC(C)(C)C)C(=O)OCc1ccccc1` (stereo not given), the EC50 was greater than 95.5 µM and the IC50 was found to be 60.3 µM.
The like results for `COC1=C(C(c2cc(OC)c(OC)c(OC)c2)c2cc3c(cc2OC)OCO3)C(=O)OC1` (stereo not given) were, in that order, greater than 200 µM and 10.5 µM.
Take `CCc1noc2ccccc12`: the EC50 is greater than 339 µM and the IC50 was greater than 339 µM.
Take `CO/C=C(\Br)c1ccc2c(c1)OCO2`: the outcome was inactive.
On to `Cc1cc2c(cc1C)C(=O)/C(=C/c1ccccc1C(=O)O)C2`, for which the EC50 was greater than 145 µM and the IC50 was determined as 45.7 µM.
The corresponding values for `O=C(NC(Nc1ccc(F)c(Cl)c1)(C(F)(F)F)C(F)(F)F)OCc1ccccc1` are greater than 200 µM and 30.9 µM.
The like results for `CC(C)(C)OC(=O)NC(Cc1ccc(O)cc1)C(=O)NC(CCCCN)C(=O)NC(Cc1ccc(O)cc1)C(=O)NC(CCCCN)C(=O)ON1C(=O)CCC1=O` (stereo not given) (Boc-YKYK-OSu; configuration not given here) were, in that order, greater than 100 µM and greater than 100 µM.
The like results for `C=CC1(c2ccc(Cl)c(Cl)c2)OCCO1` were, in that order, greater than 200 µM and 166 µM.
With `COC(=O)Oc1nn(C(=O)OC)c(=O)c2ccccc12`, the EC50 is greater than 200 µM and the IC50 is greater than 200 µM.
For `O=[N+]([O-])c1cccc(C2=NC(=S)NC(c3cc(Cl)ccc3O)C2)c1` (stereo not given), the EC50 was greater than 200 µM and the IC50 is 141 µM.
The like results for `CCOC(=O)[C@@H]1ON2O[C@@H](OC3CCCC3(c3ccccc3)c3ccccc3)C[C@H]3OC(=O)[C@@H]1C32` (stereo not given in full) were, in that order, greater than 200 µM and 34.7 µM.
The like results for `CC(=O)O[C@]12CCCCC1C1(O)C(O)CCCCC12` (stereo not given in full) were, in that order, greater than 200 µM and greater than 200 µM.
The like results for `Clc1cnc(Oc2ccccc2)c2ccccc12` were, in that order, greater than 200 µM and 64.6 µM.
With `CCCCNC1CCC2(SCCS2)c2[nH]c3ccccc3c21` (stereo not given), the EC50 is greater than 200 µM and the IC50 is 1.26 µM.
As to `Cc1ccc(S(=O)(=O)N/N=C(\C(=O)Nc2cccc([N+](=O)[O-])c2)c2nc3ccc([N+](=O)[O-])cc3[nH]c2=O)cc1`, the EC50 was greater than 123 µM and the IC50 turned out to be 115 µM.
The like results for `CN(C)c1ccc(/C=C(\C#N)c2ccc(Br)cc2Br)cc1` were, in that order, greater than 200 µM and 3.39 µM.
The like results for `CCOP(=O)(OCC)/C(C#N)=C/c1ccco1` were, in that order, 69.2 µM and greater than 200 µM.
The corresponding values for `C=C1CN=C(Nc2ccc(Cl)cc2)S1` are greater than 200 µM and 75.9 µM.
With `O=Nn1cc(-c2cc3ccccc3n2N=O)c2ccccc21`, the EC50 was greater than 200 µM and the IC50 amounted to 97.7 µM.
The like results for `CC1CC[N+]2(C)CCCC12` (stereo not given) were, in that order, greater than 1120 µM and greater than 1120 µM.
`O=C(/C=C/c1ccc2c(c1)OCO2)c1cc(Cl)cc(Cl)c1O`: the outcome was inactive.
Turning to `CN(C)CC1=C(O)c2ccccc2C(=O)C1=O`, the EC50 was greater than 1070 µM and the IC50 was greater than 1070 µM.
Take `CCCCC[C@@H]1CCCC2C1CC[C@@H](CC/C=C/C(=O)OC)N2C(=O)OC(C)C(Cl)(Cl)Cl` (stereo not given in full): the result was inactive.
Turning to `CC(=O)c1ccc(NC(=O)C(=O)C(C#N)CC(C)(C)C=O)cc1` (stereo not given), the EC50 is greater than 83.2 µM and the IC50 was greater than 83.2 µM.
Turning to `N=C(N)c1ccc(N=Nc2ccc(N)cc2N)cc1`, the EC50 is greater than 200 µM and the IC50 was 51.3 µM.
The corresponding values for `N#C/C(C(=S)NCc1ccccc1)=C1/Nc2ccccc2O1` are greater than 200 µM and 33.1 µM.
The like results for `O=C1OC(c2ccccc2)=N/C1=C\c1ccc(Cl)cc1Cl` were, in that order, greater than 200 µM and 97.7 µM.
The like results for `Sc1ccccc1N=Cc1ccc(C=Nc2ccccc2S)cc1` were, in that order, greater than 200 µM and greater than 200 µM.
As for `COc1ccc2[nH]cc(CCNC(C)=O)c2c1`, the EC50 is greater than 200 µM and the IC50 was greater than 200 µM.
Consider `CCCc1cc(=O)oc2c3c(cc(OC)c12)O[C@H](C)C(C)C3=O` (stereo not given in full), for which the EC50 was greater than 200 µM and the IC50 came to 58.9 µM.
The like results for `CCN1CCC(CNC(=O)c2ccc(N)cc2)N1CC` (stereo not given) were, in that order, greater than 200 µM and greater than 200 µM.
The like results for `CN(C)Cc1cc(N=Nc2ccc(Cl)cc2)ccc1OC(=O)c1ccccc1` were, in that order, greater than 200 µM and 14.5 µM.
The like results for `CN1CCN(C(=O)CCNC(=O)Cc2ccc(C(=O)c3ccccc3)cc2)CC1` were, in that order, greater than 200 µM and 64.6 µM.
Consider `CCN(CC)CCOc1ccc(/C(=C(\Cl)c2ccccc2)c2ccccc2)cc1`, for which the EC50 is greater than 200 µM and the IC50 is 5.5 µM.
The like results for `CC1(C)C2CCC(=O)C1C(OCc1ccccc1)C2` (stereo not given) were, in that order, greater than 200 µM and 95.5 µM.
The like results for `O=C(CCN1CCCCC1)Nc1ccc2c(c1)C(=O)c1ccc(NC(=O)CCN3CCCCC3)cc1C2=O` were, in that order, greater than 200 µM and 1.86 µM.
The like results for `O=c1[nH]c2ccc(CC(=S)N3CCN(c4ccccc4)CC3)cc2o1` were, in that order, greater than 200 µM and greater than 200 µM.
On to `O=S1Nc2cccc(C(F)(F)F)c2S1` (stereo not given), for which the EC50 is greater than 57.5 µM and the 50% inhibitory concentration (IC50) is greater than 57.5 µM.
Regarding `CCC[CH2][Sn]1([CH2]CCC)[O]C(=O)C2C(C(=O)[O]1)C1(Cl)C(Cl)=C(Cl)C2(Cl)C1(Cl)Cl` (stereo not given), the EC50 was greater than 200 µM and the IC50 is 0.182 µM.
The corresponding values for `CCOC(=O)[C@@H](NC(=O)OC(C)(C)C)[C@@H](O)C(=O)OCC` are greater than 200 µM and greater than 200 µM.
Regarding `O=C(CSc1nc(-c2ccccc2)c(-c2ccccc2)[nH]1)NNC(=S)Nc1ccccc1`, the EC50 is greater than 56.2 µM and the IC50 was found to be 29.5 µM.
The like results for `COc1ccc([C@H]2CC(=O)NCCCCN2)cc1` were, in that order, greater than 200 µM and greater than 200 µM.
For `CCCCCCN(CCCCCC)/N=C/c1c2c(O)c3c(O)c(C)c4c(c3c1O)C(=O)C(C)(O/C=C/C(OC)C(C)C(OC(C)=O)C(C)C(O)C(C)C(O)C(C)/C=C/C=C(C)C(=O)N2)O4` (stereo not given), the outcome was inactive.
Same read-out and setting: the value for `CN(C)c1ccc(N=C2C=CC(=C(C#N)C#N)c3ccccc32)cc1` was “inactive”.
Take `CCOC(=O)c1cc(-c2ccccn2)c(=O)n2ccccc12`: the EC50 is greater than 200 µM and the IC50 turned out to be 49 µM.
With `C=C(CN(CC)CC)C1(c2ccccc2)CC2(CCCC2)C(=O)O1` (stereo not given), the EC50 was greater than 200 µM and the IC50 is 117 µM.
`O=C(Cc1nc2ccccc2o1)C(=O)Nc1cccc(C(F)(F)F)c1`: the result was inactive.
As to `CCCCCCCCCCCC(=O)OCCOCCOCCOCCOCCOCCOCCOCCOCCO`, the EC50 was greater than 200 µM and the IC50 worked out at 145 µM.
The corresponding values for `O=c1ccc2nc3ccc(O)cc3oc-2c1` are greater than 200 µM and 14.1 µM.
On to `O=C(CCSSc1ccccn1)ON1C(=O)CCC1=O`, for which the EC50 is greater than 50.1 µM and the IC50 was greater than 50.1 µM.
`NC1Cc2ccccc2OC1=O` (stereo not given): the EC50 was greater than 200 µM and the IC50 is greater than 200 µM.
For the compound `COC(=O)[C@H]1ON2O[C@@H](O[C@H]3CCCC[C@@H]3C(C)(C)c3ccccc3)C[C@@H]3CC[C@H]1[C@@]32C`, the EC50 was greater than 200 µM and the IC50 was greater than 200 µM.
Turning to `C/C=N\n1c(C)c(C#N)c(C#N)c1N`, the EC50 is greater than 200 µM and the IC50 was greater than 200 µM.
With `CCOC(=O)C(=Cc1ccco1)C(=O)OCC`, the EC50 is greater than 151 µM and the IC50 worked out at 85.1 µM.
Consider `CNNC1=NS(=O)(=O)c2cc(C#N)c(Cl)cc2S1`, for which the outcome was inactive.
On to `COc1ccc2c(c1)OCCN(C)OC2c1ccccc1` (stereo not given), for which the EC50 was greater than 200 µM and the IC50 was greater than 200 µM.
Turning to `c1ccc(P2c3ccccc3Oc3ccccc32)cc1`, the EC50 was greater than 200 µM and the IC50 was determined as 35.5 µM.
The corresponding values for `Cn1c(=O)c2c(ncn2CC(=O)N/N=C2\SCC(=O)N2Cc2ccccc2)n(C)c1=O` are greater than 74.1 µM and greater than 74.1 µM.
As to `COc1cc2c3c(c1OC)-c1ccccc1C(C(O)c1ccccc1)C3N(C)CC2` (stereo not given), the outcome was inactive.
`Cc1cc2c(s1)C(N)CC2=O` (stereo not given): the EC50 is greater than 200 µM and the IC50 is greater than 200 µM.
On to `CCOCC1c2ccccc2CCN1Cc1c[nH]c2ccccc12` (stereo not given), for which the EC50 was greater than 200 µM and the IC50 turned out to be 19.5 µM.
The like results for `O=c1[nH]nc(Cc2ccc(Cl)cc2)n1CCO` were, in that order, greater than 200 µM and greater than 200 µM.
